Read-outs that look alike come from different tables or passages of the source.
Tested on: Lox-IMVI melanoma cell line
Test: Lox-IMVI anti-proliferative assay (growth inhibition, Cell Titer-Glo)
Format: cell-based, human
Details: Homo sapiens
How it was run: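 Viability read by ATP luminescence (Cell Titer-Glo) at t0 and after 72 h at 37 °C, 5% CO2, with normalisation to DMSO-treated cells. Compound tested at 0.5 nM–10 μM in 3-fold, 10-point series (0.2% DMSO final) on Lox-IMVI in RPMI+10% FBS; IC50 by 4-parameter sigmoidal fit.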

[1] = Lox-IMVI melanoma cell line, anti-proliferative assay, read-out: Activity (IC50 activity level)
[2] = IC50 activity level in the cell-based Lox-IMVI anti-proliferative assay, read-out: Activity
[3] = Lox-IMVI anti-proliferative assay, IC50 activity level, read-out: Activity

IC50 [2] [µM] | Compound | other results
 | CS(=O)(=O)N1CCC[C@@H](Nc2ncc3nc(Nc4c(F)cc(Cl)cc4F)n([C@H]4CC[C@@H](C(N)=O)CC4)c3n2)C1 [Example 703, (1S,4s)-4-(8-(4-chloro-2,6-difluorophenylamino)-2-((R)-1-(methylsulfonyl)piperidin-3-ylamino)-9H-purin-9-yl)cyclohexanecarboxamide] | IC50 [1]: > 1 µM
0.5 to 1 | NC(=O)[C@H]1CC[C@@H](n2c(Nc3c(Cl)cc(Cl)cc3Cl)nc3cnc(N[C@H]4C[C@H](O)C4)nc32)CC1 [Example 300, (1s,4s)-4-(2-((1r,3r)-3-hydroxycyclobutylamino)-8-(2,4,6-trichlorophenylamino)-9H-purin-9-yl)cyclohexanecarboxamide] | 
> 1 | NC(=O)[C@H]1CC[C@@H](n2c(Nc3cc(F)c(Cl)cc3Cl)nc3cnc(NC4CCOCC4)nc32)CC1 [Example 105, (1s,4s)-4-(8-(2,4-dichloro-5-fluorophenylamino)-2-(tetrahydro-2H-pyran-4-ylamino)-9H-purin-9-yl)cyclohexanecarboxamide] | 
 | N#Cc1cc(Cl)c(Nc2nc3cnc(N[C@H]4CCC[C@@H](O)C4)nc3n2[C@H]2CC[C@@H](C(N)=O)CC2)c(Cl)c1 [Example 686, (1R,4s)-4-(8-(2,6-dichloro-4-cyanophenylamino)-2-((1S,3R)-3-hydroxycyclohexylamino)-9H-purin-9-yl)cyclohexanecarboxamide] | IC50 [1]: 0.5 to 1 µM
> 1 | Cc1c(Cl)ccc(F)c1Nc1nc2cnc(NC3CCOCC3)nc2n1[C@H]1CC[C@@H](C(N)=O)CC1 [Example 79, (1s,4s)-4-(8-(3-chloro-6-fluoro-2-methylphenylamino)-2-(tetrahydro-2H-pyran-4-ylamino)-9H-purin-9-yl)cyclohexanecarboxamide] | 
 | C[C@]1(O)CCC[C@@H](Nc2ncc3nc(Nc4c(F)cc(Cl)cc4Cl)n([C@H]4CC[C@@H](C(N)=O)CC4)c3n2)C1 [Example 427, (1S,4s)-4-(8-(2,4-dichloro-6-fluorophenylamino)-2-((1R,3S)-3-hydroxy-3-methylcyclohexylamino)-9H-purin-9-yl)cyclohexanecarboxamide] | IC50 [3]: 0.5 to 1 µM
0.5 to 1 | NC(=O)[C@H]1CC[C@@H](n2c(Nc3c(F)cc(Cl)cc3F)nc3cnc(N[C@H]4CC[C@H](O)C4)nc32)CC1 [Example 329, (1R,4s)-4-(8-(4-chloro-2,6-difluorophenylamino)-2-((1S,3S)-3-hydroxycyclopentylamino)-9H-purin-9-yl)cyclohexanecarboxamide] | 
 | C[C@]1(C(N)=O)CC[C@@H](n2c(Nc3c(Cl)cc(Cl)cc3Cl)nc3cnc(NC4CCCC4)nc32)CC1 [Example 574, (1s,4s)-4-(2-(cyclopentylamino)-8-(2,4,6-trichlorophenylamino)-9H-purin-9-yl)-1-methylcyclohexanecarboxamide] | IC50 [3]: 0.25 to 0.5 µM
> 1 | NC(=O)[C@H]1CC[C@@H](n2c(Nc3c(F)cc(F)cc3F)nc3cnc(N[C@H]4C[C@H](O)C4)nc32)CC1 [Example 279, (1s,4s)-4-(2-((1r,3r)-3-hydroxycyclobutylamino)-8-(2,4,6-trifluorophenylamino)-9H-purin-9-yl)cyclohexanecarboxamide] | 
 | C[C@]1(C(N)=O)CC[C@@H](n2c(Nc3c(F)cc(C#N)cc3Cl)nc3cnc(N[C@H]4CCC[C@H](O)C4)nc32)CC1 [Example 615, (1R,4s)-4-(8-(2-chloro-4-cyano-6-fluorophenylamino)-2-((1S,3S)-3-hydroxycyclohexylamino)-9H-purin-9-yl)-1-methylcyclohexanecarboxamide] | IC50 [1]: < 0.25 µM
 | NC(=O)[C@H]1CC[C@@H](n2c(Nc3c(F)cc(Cl)cc3Cl)nc3cnc(N[C@H]4CCCC[C@H]4O)nc32)CC1 [Example 513, (1R,4s)-4-(8-(2,4-dichloro-6-fluorophenylamino)-2-((1S,2R)-2-hydroxycyclohexylamino)-9H-purin-9-yl)cyclohexanecarboxamide] | IC50 [3]: > 1 µM
> 1 | NC(=O)[C@H]1CC[C@@H](n2c(Nc3c(Cl)cccc3Cl)nc3cnc(N[C@@H]4CC[C@@H](O)C4)nc32)CC1 [Example 211, (1S,4s)-4-(8-(2,6-dichlorophenylamino)-2-((1R,3R)-3-hydroxycyclopentylamino)-9H-purin-9-yl)cyclohexanecarboxamide] | 
0.5 to 1 | NC(=O)[C@H]1CC[C@@H](n2c(Nc3c(F)cc(Cl)cc3Cl)nc3cnc(N[C@H]4CCOC4)nc32)CC1 [Example 244, (1R,4s)-4-(8-(2,4-dichloro-6-fluorophenylamino)-2-((S)-tetrahydrofuran-3-ylamino)-9H-purin-9-yl)cyclohexanecarboxamide] | 
 | C[C@]1(C(N)=O)CC[C@@H](n2c(Nc3c(Cl)cc(Cl)cc3Cl)nc3cnc(NC4CC(F)(F)C4)nc32)CC1 [Example 580, (1s,4s)-4-(2-(3,3-difluorocyclobutylamino)-8-(2,4,6-trichlorophenylamino)-9H-purin-9-yl)-1-methylcyclohexanecarboxamide] | IC50 [3]: 0.25 to 0.5 µM
 | COC(=O)N1CCC[C@@H](Nc2ncc3nc(Nc4c(F)cc(C#N)cc4Cl)n([C@H]4CC[C@@H](C(N)=O)CC4)c3n2)C1 [Example 709, (R)-methyl 3-(9-((1s,4S)-4-carbamoylcyclohexyl)-8-(2-chloro-4-cyano-6-fluorophenylamino)-9H-purin-2-ylamino)piperidine-1-carboxylate] | IC50 [1]: 0.5 to 1 µM
 | COC(=O)N1CCC[C@@H](Nc2ncc3nc(Nc4ccc(Cl)c(F)c4F)n([C@H]4CC[C@@H](C(N)=O)CC4)c3n2)C1 [Example 411, (R)-methyl 3-(9-((1s,4S)-4-carbamoylcyclohexyl)-8-(4-chloro-2,3 difluorophenylamino)-9H-purin-2-ylamino)piperidine-1-carboxylate] | IC50 [3]: > 1 µM
 | C[C@]1(C(N)=O)CC[C@@H](n2c(Nc3c(F)cc(F)cc3F)nc3cnc(N[C@H]4CCC[C@@H](O)C4)nc32)CC1 [Example 625, (1R,4s)-4-(2-((1S,3R)-3-hydroxycyclohexylamino)-8-(2,4,6-trifluorophenylamino)-9H-purin-9-yl)-1-methylcyclohexanecarboxamide] | IC50 [1]: > 1 µM
0.25 to 0.5 | NC(=O)[C@H]1CC[C@@H](n2c(Nc3c(F)cc(Cl)cc3F)nc3cnc(NC4CCCC4)nc32)CC1 [Example 120, (1s,4s)-4-(8-(4-chloro-2,6-difluorophenylamino)-2-(cyclopentylamino)-9H-purin-9-yl)cyclohexanecarboxamide] | 
0.5 to 1 | NC(=O)[C@H]1CC[C@@H](n2c(Nc3c(F)cc(F)cc3Cl)nc3cnc(NC4CC(F)(F)C4)nc32)CC1 [Example 228, (1s,4s)-4-(8-(2-chloro-4,6-difluorophenylamino)-2-(3,3-difluorocyclobutylamino)-9H-purin-9-yl)cyclohexanecarboxamide] | 
> 1 | CS(=O)(=O)N1CCC(Nc2ncc3nc(Nc4c(F)cc(F)cc4Cl)n([C@H]4CC[C@@H](C(N)=O)CC4)c3n2)CC1 [Example 294, (1s,4s)-4-(8-(2-chloro-4,6-difluorophenylamino)-2-(1-(methylsulfonyl)piperidin-4-ylamino)-9H-purin-9-yl)cyclohexanecarboxamide] | 
 | NC(=O)[C@H]1CC[C@@H](n2c(Nc3c(F)cc(F)cc3Cl)nc3cnc(N[C@H]4CCC[C@H](O)C4)nc32)CC1 [Example 459, (1R,4s)-4-(8-(2-chloro-4,6-difluorophenylamino)-2-((1S,3S)-3-hydroxycyclohexylamino)-9H-purin-9-yl)cyclohexanecarboxamide] | IC50 [3]: > 1 µM
 | C[C@]1(C(N)=O)CC[C@@H](n2c(Nc3c(F)cc(Cl)cc3F)nc3cnc(N[C@@H]4CCC[C@@H](O)C4)nc32)CC1 [Example 622, (1S,4s)-4-(8-(4-chloro-2,6-difluorophenylamino)-2-((1R,3R)-3-hydroxycyclohexylamino)-9H-purin-9-yl)-1-methylcyclohexanecarboxamide] | IC50 [1]: 0.5 to 1 µM
 | CC(=O)N1CCC[C@@H](Nc2ncc3nc(Nc4c(Cl)cc(C(F)(F)F)cc4Cl)n([C@H]4CC[C@@H](C(N)=O)CC4)c3n2)C1 [Example 798, (1S,4s)-4-(2-((R)-1-acetylpiperidin-3-ylamino)-8-(2,6-dichloro-4-(trifluoromethyl)phenylamino)-9H-purin-9-yl)cyclohexanecarboxamide] | IC50 [1]: > 1 µM
0.25 to 0.5 | C[C@@H]1CC[C@@H](Nc2ncc3nc(Nc4c(F)cc(Cl)cc4Cl)n([C@H]4CC[C@@H](C(N)=O)CC4)c3n2)C[C@H]1O [Example 346, (1S,4s)-4-(8-(2,4-dichloro-6-fluorophenylamino)-2-((1R,3R,4R)-3-hydroxy-4-methylcyclohexylamino)-9H-purin-9-yl)cyclohexanecarboxamide] | 
> 1 | NC(=O)[C@H]1CC[C@@H](n2c(Nc3c(F)cc(F)cc3Cl)nc3cnc(N[C@H]4C[C@H](O)C4)nc32)CC1 [Example 282, (1s,4s)-4-(8-(2-chloro-4,6-difluorophenylamino)-2-((1R,3r)-3-hydroxycyclobutylamino)-9H-purin-9-yl)cyclohexanecarboxamide] | 
> 1 | NC(=O)[C@H]1CC[C@@H](n2c(Nc3c(Cl)cc(Cl)cc3Cl)nc3cnc(NC4CC(F)(F)C4)nc32)CC1 [Example 224, (1s,4s)-4-(2-(3,3-difluorocyclobutylamino)-8-(2,4,6-trichlorophenylamino)-9H-purin-9-yl)cyclohexanecarboxamide] | 
> 1 | CC[C@@H](CO)Nc1ncc2nc(Nc3c(Cl)cc(Cl)cc3Cl)n([C@H]3CC[C@@H](C(N)=O)CC3)c2n1 [Example 154, (1R,4s)-4-(2-((S)-1-hydroxybutan-2-ylamino)-8-(2,4,6-trichlorophenylamino)-9H-purin-9-yl)cyclohexanecarboxamide] | 
> 1 | C[C@@H]1CC[C@@H](Nc2ncc3nc(Nc4c(F)ccc(F)c4F)n([C@H]4CC[C@@H](C(N)=O)CC4)c3n2)C[C@H]1O [Example 359, (1S,4s)-4-(2-((1R,3R,4R)-3-hydroxy-4-methylcyclohexylamino)-8-(2,3,6-trifluorophenylamino)-9H-purin-9-yl)cyclohexanecarboxamide] | 
